Reference: patent US20240116946A1 (Gilead Sciences, Inc., priority 2022, published 2024)
Where two headings read alike, the source gives them in different places.

Legend:
[1] = molecular target: SARS-CoV-2 main protease (Severe acute respiratory syndrome coronavirus 2 (2019-nCoV) (SARS-CoV-2), UniProt P0DTD1); assay: activity comparison of separated atropisomers (assay not given); conditions: Isomer 1 versus Isomer 2 after chiral SFC separation; used to assign stereochemistry by analogy to Example 438
[2] = molecular target: recombinant SARS-CoV-2 Main protease (Mpro) (Severe acute respiratory syndrome coronavirus 2 (2019-nCoV) (SARS-CoV-2), UniProt P0DTD1); assay: Cov Mpro Biochemical IC50 Assay
[3] = system: SARS-CoV-2-NLuc; assay: microbe, parasite or virus in culture; format: cell-based, SARS Coronavirus 2
[4] = recombinant SARS-CoV-2 Mpro 7.5 nM, fluorogenic peptide substrate 40 μM, read-out: MPro IC50
[5] = recombinant SARS-CoV-2 Mpro, fluorogenic peptide substrate, read-out: MPro IC50
[6] = Severe acute respiratory syndrome coronavirus, 48 h, read-out: MPro EC50
[7] = Severe acute respiratory syndrome coronavirus, 48 h; read-out: MPro EC50
[8] = MPro IC50, recombinant SARS-CoV-2 Mpro 7.5 nM, fluorogenic peptide substrate 40 μM

Compound | IC50 [2, 4] | IC50 [2, 5] | EC50 [3, 6] | other results
O=c1[nH]c2cc(-c3ccccc3Cl)sc2c(=O)n1-c1cncc2cccnc12 (single isomer, unassigned) [Example 464, 6-(2-chlorophenyl)-3-(1,6-naphthyridin-8-yl)thieno[3,2-d]pyrimidine-2,4(1H,3H)-dione] | 4.68 nM | – | – | relative activity of the two separated isomers [1]: more active isomer; EC50 ([3]; read-out: MPro EC50): 11.5 nM
COc1ccc(Cl)c(-c2cc3[nH]c(=O)n(-c4cncc5cccnc45)c(=O)c3s2)c1 (single isomer, unassigned) [Example 468, 6-(2-chloro-5-methoxyphenyl)-3-(1,6-naphthyridin-8-yl)thieno[3,2-d]pyrimidine-2,4(1H,3H)-dione] | < 2.54 nM | – | – | relative activity of the two separated isomers [1]: more active isomer; EC50 ([3]; read-out: MPro EC50): < 6.34 nM
Cn1cc2ccc(-n3c(=O)n(-c4cncc5ccccc45)c(=O)c4sc(-c5ccccc5Cl)cc43)cc2n1 [Example 152, 6-(2-chlorophenyl)-3-(isoquinolin-4-yl)-1-(2-methyl-2H-indazol-6-yl)thieno[3,2-d]pyrimidine-2,4(1H,3H)-dione] | – | 85.8 nM | 149 nM | –
Cc1cc(-c2cccc(Cl)c2-c2ccc3c(=O)n(-c4cncc5ccccc45)c(=O)[nH]c3c2)cn2ncnc12 [Example 102] | – | 15.7 nM | 16.1 nM | –
N#CCCn1c(=O)n(-c2cccnc2)c(=O)c2sc(-c3ccccc3Cl)cc21 [Example 804] | 14 nM | – | – | EC50 [3, 7]: 45 nM
COc1cc(-c2cc3[nH]c(=O)n(-c4cncc5ccc(C(C)(C)O)cc45)c(=O)c3s2)c(Cl)cc1F [Example 551, 6-(2-chloro-4-fluoro-5-methoxyphenyl)-3-(6-(2-hydroxypropan-2-yl)isoquinolin-4-yl)thieno[3,2-d]pyrimidine-2,4(1H,3H)-dione] | 5.36 nM | – | 23.6 nM | –
O=c1[nH]c2cc(-c3cncc4ccccc34)ccc2c(=O)n1-c1cncc2ccccc12 [Example 42] | – | 3220 nM | – | EC50 [3, 7]: 4950 nM
COCCOCCOc1c(C)cncc1-n1c(=O)[nH]c2cc(-c3ccccc3Cl)sc2c1=O [Example 215] | – | 10.7 nM | 94.1 nM | –
COc1cc(-c2cc3c(s2)c(=O)n(-c2cncc4nc(C)n(C5CC5)c24)c(=O)n3CCC#N)c(Cl)cc1F [Example 990] | 4.1 nM | – | 14.1 nM | –
CCn1cc2cncc(-n3c(=O)[nH]c4cc(-c5cc(OC)c(F)cc5Cl)sc4c3=O)c2n1 [Example 734] | 5.17 nM | – | 43.5 nM | –
COc1cc(-c2cc3[nH]c(=O)n(-c4cncc5cnn(C)c45)c(=O)c3s2)c(C)cc1F [Example 657] | 14.4 nM | – | 27.4 nM | –
COc1cc(-c2cc3[nH]c(=O)n(-c4cncc5ccn(C)c45)c(=O)c3s2)c(Cl)cc1F [Example 454, 6-(2-chloro-4-fluoro-5-methoxyphenyl)-3-(1-methyl-1H-pyrrolo[3,2-c]pyridin-7-yl)thieno[3,2-d]pyrimidine-2,4(1H,3H)-dione] | 4.8 nM | – | 3.89 nM | –
O=C1NCc2c1cccc2-c1cccc(Cl)c1-c1ccc2c(=O)n(-c3cncc4ccccc34)c(=O)[nH]c2c1 [Example 193] | – | 7.69 nM | 65.6 nM | –
Cn1ncc(-c2cccc(Cl)c2-c2ccc3c(=O)n(-c4cncc5ccccc45)c(=O)[nH]c3c2)c1C(F)(F)F [Example 272] | – | 212 nM | 39.6 nM | –
Cn1ncc2cncc(-n3c(=O)c4sc(-c5c(Cl)cccc5-c5cncc(C#N)c5)cc4n(CCC#N)c3=O)c21 [Example 934] | 8.3 nM | – | 49 nM | –
O=c1[nH]c2cc(-c3ccccc3Cl)ccc2c(=O)n1-c1cncc2ccccc12 (single isomer, unassigned) [Example 104, 7-(2-chlorophenyl)-3-(isoquinolin-4-yl)quinazoline-2,4(1H,3H)-dione] | – | 6790 nM | – | EC50 ([3]; read-out: MPro EC50): 3920 nM
COc1ccc(C#N)c(-c2cc3c(cc2F)c(=O)n(-c2cncc4ccccc24)c(=O)n3CC#N)c1 (atropisomer, axis not shown) [Example 701] | < 3.63 nM | – | 79.9 nM | –
O=c1[nH]c2cc(-c3ccccc3Cl)ccc2c(=O)n1-c1cncc(C2CC2)c1 [Example 127] | – | – | – | IC50 ([2]; MPro IC50, recombinant SARS-CoV-2 Mpro, fluorogenic peptide substrate): 776 nM; EC50 [3, 7]: 652 nM
O=c1[nH]c2cc(-c3ccsc3Cl)ccc2c(=O)n1-c1cncc2ccccc12 [Example 84] | – | 604 nM | 1030 nM | –
COc1cc(-c2nc3[nH]c(=O)n(-c4cncc5ccccc45)c(=O)c3s2)c(Cl)cc1F [Example 704] | – | – | – | IC50 [2, 8]: 34.4 nM; EC50 [3, 7]: 248 nM
CC(C)COc1ccc(Cl)c(-c2ccc3c(=O)n(-c4cncc5ccccc45)c(=O)[nH]c3c2)c1 [Example 256] | – | 3990 nM | 699 nM | –
O=c1[nH]c2nc(-c3ccccc3Cl)ccc2c(=O)n1-c1cncc2ccccc12 [Example 32] | – | 2280 nM | – | EC50 [3, 7]: 7060 nM

Compound | IC50 [2, 4] | IC50 [2, 5] | EC50 [3, 6] | other results
COc1cc(-c2cc3c(s2)c(=O)n(-c2cncc4ccccc24)c(=O)n3[C@H]2C[C@H](C#N)C2)c(Cl)cc1F [Example 695] | 16.2 nM | – | 45.9 nM | –
COc1ccc(Cl)c(-c2cc3[nH]c(=O)n(-c4cncc5ccccc45)c(=O)c3s2)c1 [Example 174, 6-(2-chloro-5-methoxyphenyl)-3-(isoquinolin-4-yl)thieno[3,2-d]pyrimidine-2,4(1H,3H)-dione] | – | 6.99 nM | 30.7 nM | –
COc1ccc(Cl)c(-c2cc3[nH]c(=O)n(-c4cncc5ccc(C(=O)N6CCOCC6)cc45)c(=O)c3s2)c1 [Example 566, 6-(2-chloro-5-methoxy-phenyl)-3-[6-(morpholine-4-carbonyl)-4-isoquinolyl]-1H-thieno[3,2-d]pyrimidine-2,4-dione] | 9.83 nM | – | 20.8 nM | –
NC(=O)c1cc(-c2cccc(Cl)c2-c2ccc3c(=O)n(-c4cncc5ccccc45)c(=O)[nH]c3c2)ccc1Cl [Example 264] | – | 11.1 nM | 30.2 nM | –
Cc1ccncc1-n1c(=O)[nH]c2cc(-c3ccccc3Cl)sc2c1=O [Example 216] | – | 62.3 nM | 112 nM | –
COc1cc(-c2cc3c(s2)c(=O)n(-c2cncc4ccccc24)c(=O)n3CC2(CC#N)CC2)c(Cl)cc1F [Example 661] | 29.5 nM | – | 37 nM | –
COc1ccc2cncc(-n3c(=O)[nH]c4cc(-c5c(Cl)cccc5C5=CCOCC5)sc4c3=O)c2c1 [Example 563] | 6.96 nM | – | 10 nM | –
CNC(=O)CCn1c(=O)n(-c2cncc(C3CC3)c2)c(=O)c2sc(-c3ccccc3Cl)cc21 [Example 619, 3-(6-(2-chlorophenyl)-3-(5-cyclopropylpyridin-3-yl)-2,4-dioxo-3,4-dihydrothieno[3,2-d]pyrimidin-1(2H)-yl)-N-methylpropanamide] | 245 nM | – | – | EC50 [3, 7]: 451 nM
Cc1nccnc1COc1cccc(Cl)c1-c1ccc2c(=O)n(-c3cncc4ccccc34)c(=O)[nH]c2c1 [Example 94] | – | 210 nM | 269 nM | –
O=c1[nH]c2cc(-c3ccccc3C3CC3)sc2c(=O)n1-c1cncc2ccccc12 [Example 16] | – | 164 nM | 182 nM | –
COc1ccc(Cl)c(-c2cc3[nH]c(=O)n(-c4cncc5ccc(N6CCNC(=O)C6)cc45)c(=O)c3s2)c1 [Example 416] | 4.63 nM | – | 187 nM | –
Cc1c(Cl)cncc1-n1c(=O)c2sc(-c3cc(F)c(F)cc3Cl)cc2n(CCC#N)c1=O [Example 847] | 8.09 nM | – | – | EC50 [3, 7]: 19.8 nM
COc1cc(-c2ccc3c(=O)n(-c4cncc5ccccc45)c(=O)n(CC#N)c3c2)c(Cl)cc1F [Example 897] | 11.2 nM | – | 85.4 nM | –
COc1cc(-c2cc3[nH]c(=O)n(-c4cncc(C5CC5)c4)c(=O)c3s2)c(Cl)cc1F [Example 753] | – | – | – | IC50 [2, 8]: 6.88 nM; EC50 [3, 7]: 14.6 nM
COc1cc(-c2cc3c(s2)c(=O)n(-c2cncc4ccccc24)c(=O)n3CC#N)c(Cl)cc1F (single isomer, unassigned) [Example 634, 2-[6-(2-chloro-4-fluoro-5-methoxy-phenyl)-3-(4-isoquinolyl)-2,4-dioxo-thieno[3,2-d]pyrimidin-1-yl]acetonitrile] | 29 nM | – | – | EC50 ([3]; read-out: MPro EC50): 31.2 nM
COc1cc(-c2cc3c(s2)c(=O)n(-c2cncc4ccc(C#N)cc24)c(=O)n3CCC#N)c(Cl)cc1F [Example 1062] | 4.87 nM | – | 5.42 nM | –
O=c1[nH]c2cc(-c3ccccc3Cl)sc2c(=O)n1-c1cncc2ccc(N3CC4(C3)CC(F)(F)C4)cc12 [Example 419] | 21.1 nM | – | 74.9 nM | –
COc1cc(-c2cc3c(s2)c(=O)n(-c2nncc4c(C)nn(C)c24)c(=O)n3CCC#N)c(Cl)cc1F [Example 892] | 13.5 nM | – | 32.9 nM | –
N#CC1(Cn2c(=O)n(-c3cncc4cccnc34)c(=O)c3sc(-c4ccccc4Cl)cc32)CC1 [Example 711] | 4.41 nM | – | 1.71 nM | –
N#CCCn1c(=O)n(-c2cncc(N3CCOCC3)c2)c(=O)c2sc(-c3ccccc3C#N)cc21 [Example 817] | > 1000 nM | – | – | EC50 [3, 7]: > 1000 nM
COc1cc(-c2cc3[nH]c(=O)n(-c4cncc5ccccc45)c(=O)c3cc2OC)c(Cl)cc1F (single isomer, unassigned) [Example 1054, 7-(2-chloro-4-fluoro-5-methoxyphenyl)-3-(isoquinolin-4-yl)-6-methoxyquinazoline-2,4(1H,3H)-dione] | 34.6 nM | – | – | EC50 ([3]; read-out: MPro EC50): 15.5 nM
COc1ccc(Cl)c(-c2cnc3c(=O)n(-c4cncc5ccccc45)c(=O)[nH]c3c2)c1 [Example 219] | – | 5.06 nM | – | EC50 [3, 7]: 181 nM
